Converted amounts (≈) assume the structure as drawn. Residues, ends and D or L forms follow the SMILES beside them.

We go through one molecule from PMC10377513, “Goldilocks Dilemma: LPS Works Both as the Initial Target and a Barrier for the Antimicrobial Action of Cationic AMPs on E. coli” (Biomolecules, 2023).

Assay [1] has as its system E. coli NR 698 live cells. The experiment in a line: Live cell NMR (1H signal attenuation on cell titration). The assay is classed as binding. The note with it: E. coli NR 698 cells titrated into 1 mg/mL peptide, Tris buffer pH 7.4, 298 K; KD in estimated lipid concentration, Shortridge fit; read-out: KD from live cell NMR. As for the experimental part:
(§1) NMR spectra were acquired on a Bruker Avance III HD spectrometer operating at 600 MHz for ^1H, equipped with an inverse TCl cryo probe. All NMR spectra were acquired at 298 K using 5 mm tubes using standard pulse programs.
(§2) E. coli strains ATCC 25922, CCUG 70662, and NR 698 were grown until OD600 ≈ 0.6–0.8 in standard Lysogeny Broth at 37 °C from overnight colonies on agar plates. This allowed bacterial cultures to reach an exponential state of growth. CCUG 70662 was cultivated with and without 4 µg/mL of colistin in both agar and broth to allow for modification of the lipid A part of LPS [33]. After that, cells were carefully centrifuged by 6000× g for 10 min, the supernatant was discarded, and the cell pellet was resuspended in 10 mM Tris buffer with 100 mM NaCl and pH 7.4. The process was repeated two more times to wash out broth components and leftover colistin. […] The part of samples was diluted to OD = 1 in Tris buffer, and zeta potential was measured on Malvern Zetasizer Nano (Malvern Ins., Malvern, UK). […]
(§3) For the live cell NMR, the same E. coli strains as for the MIC testing (see above) were used. […] To measure the initial AMP:bacterial cell binding, we titrated an increasing number of cells into a known and fixed concentration of AMP and monitored the signal attenuation of the peptide (Figure 4A,B). […]

The test system of assay [2] is E. coli ATCC 25922 live cells. Described as above. The assay is classed as binding. As to conditions: E. coli ATCC 25922 cells titrated into 1 mg/mL peptide, Tris buffer pH 7.4, 298 K; KD in estimated lipid concentration, Shortridge fit; read-out: KD from live cell NMR. As for the experimental part: as §1, §2, §3
The subject of another assay is S. aureus ATCC 9144. The note with it: CLSI guidelines, MHBII; cited from earlier work. How it is done:
Table 1 MIC and ζ potentials for the tested peptides against P. aeruginosa, S. aureus, and the three E. coli strains: ATCC 25922, LPS deficient—NR 698, and colistin-resistant CCUG 70662, which was tested after cultivation with (+) and without (−) 4 µg/mL of colistin, which caused a decrease of negative charge of the cell wall. MIC values for P. aeruginosa, S. aureus, and E. coli ATCC 25922 are rep | column: MIC (µg/mL) / S. aureus ATCC 9144

Assay [3] has as its system E. coli ATCC 25922 lysate. The experiment in a line: NMR line shape analysis with sonicated cell lysate. The assay is classed as binding. As to conditions: ATCC 25922 lysate versus live cells. As for the experimental part: as §1, §2, §3
A further assay has as its system P. aeruginosa ATCC 27853. As to conditions: CLSI guidelines, MHBII; cited from earlier work. How it is done: Table 1 MIC and ζ potentials for the tested peptides against P. aeruginosa, S. aureus, and the three E. coli strains: ATCC 25922, LPS deficient—NR 698, and colistin-resistant CCUG 70662, which was tested after cultivation with (+) and without (−) 4 µg/mL of colistin, which caused a decrease of negative charge of the cell wall. MIC values for P. aeruginosa, S. aureus, and E. coli ATCC 25922 are rep | column: MIC (µg/mL) / P. aeruginosa ATCC 27853

The next assay deals with E. coli ATCC 25922. As to conditions: CLSI guidelines, MHBII; cited from earlier work. How it is done:
Table 1 MIC and ζ potentials for the tested peptides against P. aeruginosa, S. aureus, and the three E. coli strains: ATCC 25922, LPS deficient—NR 698, and colistin-resistant CCUG 70662, which was tested after cultivation with (+) and without (−) 4 µg/mL of colistin, which caused a decrease of negative charge of the cell wall. MIC values for P. aeruginosa, S. aureus, and E. coli ATCC 25922 are rep | column: MIC (µg/mL) / E. coli ATCC 25922

Another assay has as its system E. coli CCUG 70662. How it is done:
(§4) The bacterial strains tested were E. coli ATCC 25922, E. coli […], and E. coli NR-698. The MIC assays followed the CLSI guidelines. Overnight cultures and MIC assays were performed in MHBII (212322, Becton, Dickson and Company, Sparks, MD, USA). In addition, E. coli […] was tested after cultivation with 4 µg/mL of colistin to induce alternation in surface charge.
(§5) The antimicrobial activity of the five cyclic cationic AMPs was determined against S. aureus, P. aeruginosa, and three strains of E. coli: ATCC 25922, LPS colistin-resistant strain CCUG 70662, and LPS deficient strain NR 698 (Table 1). CCUG 70662 was cultivated in two conditions, both in the absence (−) and in the presence (+) of colistin (4 µg/mL). Resistance development can be monitored by measuring changes in the ζ-potential, reflecting the overall charge of the bacteria. […] In the NR 698 strain, translocation of LPS from the periplasmic space to the outer leaflet is hindered.

The subject of another assay is E. coli NR 698. As to conditions: LPS deficient strain; CLSI guidelines, MHBII. How it is done: as §4, §5

Take `N=C(N)NCCC[C@@H]1NC(=O)[C@H](Cc2c[nH]c3ccccc23)NC(=O)[C@H](CCCNC(=N)N)NC(=O)[C@H](Cc2c[nH]c3ccccc23)NC(=O)[C@H](CCCNC(=N)N)NC(=O)[C@H](Cc2c[nH]c3ccccc23)NC1=O` [c(WRWRWR)] (HELM PEPTIDE1{W.R.W.R.W.R}$PEPTIDE1,PEPTIDE1,1:R1-6:R2$$$V2.0): the figures for the Kd in assay [1] and in assay [2] were more than 500 µM and 50 to 200 µM, respectively. The “MIC S. aureus ATCC 9144” value in the assay on S. aureus ATCC 9144 is on record as 32 µg/mL (≈ 31.2 µM). Also, the “Increase in KD after sonication (lysate versus live cell ATCC 25922)” value in assay [3] is reported as “two-fold”. Moreover, in the assay on P. aeruginosa ATCC 27853, the “MIC P. aeruginosa ATCC 27853” value is on record as 64 µg/mL (≈ 62.3 µM). The “MIC E. coli ATCC 25922” value with E. coli ATCC 25922 was 32 µg/mL (≈ 31.2 µM). Also, the “MIC E. coli CCUG 70662+” value against E. coli CCUG 70662 worked out at 32 µg/mL (≈ 31.2 µM). Also, the “MIC E. coli CCUG 70662−” value against E. coli CCUG 70662 is reported as 16 µg/mL (≈ 15.6 µM). Moreover, in the assay on E. coli NR 698, the “MIC E. coli NR 698” value stood at 2 µg/mL (≈ 1.95 µM).
